Earlier results as cited in patent publication US20230071314A1, “POLYMERIC COMPOSITIONS FOR SUSTAINED DELIVERY OF VMAT2 INHIBITORS” (Foresee Pharmaceuticals Co., Ltd., priority 2021, published 2023).
pKi: −log10 of the molar value. Like-named read-outs stand apart in the source and are kept apart here.

Legend:
dopamine D2 = dopamine D2 (Homo sapiens, UniProt P14416); details: Harriott et al. 2018; read-out: off-target binding affinity to dopamine D2
[1] = target: serotonin 5-HT7 receptors (Homo sapiens, UniProt P34969); details: Harriott et al. 2018; read-out: off-target binding affinity to serotonin 5-HT7 receptors
Sequence of serotonin 5-HT7 receptors (P34969 whole entry): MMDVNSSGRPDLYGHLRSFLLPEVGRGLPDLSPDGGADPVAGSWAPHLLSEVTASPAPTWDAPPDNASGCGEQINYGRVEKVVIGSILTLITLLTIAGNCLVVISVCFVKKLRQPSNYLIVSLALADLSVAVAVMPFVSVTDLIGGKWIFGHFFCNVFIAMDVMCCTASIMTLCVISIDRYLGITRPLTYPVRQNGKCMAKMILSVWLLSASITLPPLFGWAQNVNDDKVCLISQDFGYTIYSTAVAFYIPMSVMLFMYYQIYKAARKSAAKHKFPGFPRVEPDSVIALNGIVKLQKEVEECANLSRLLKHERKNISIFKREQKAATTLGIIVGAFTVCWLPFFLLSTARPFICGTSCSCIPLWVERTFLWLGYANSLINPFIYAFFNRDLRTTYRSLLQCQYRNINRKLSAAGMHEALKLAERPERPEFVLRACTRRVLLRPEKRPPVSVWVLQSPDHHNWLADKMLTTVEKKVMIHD

Sequence of dopamine D2 (P14416 1-414 isoform P14416-2): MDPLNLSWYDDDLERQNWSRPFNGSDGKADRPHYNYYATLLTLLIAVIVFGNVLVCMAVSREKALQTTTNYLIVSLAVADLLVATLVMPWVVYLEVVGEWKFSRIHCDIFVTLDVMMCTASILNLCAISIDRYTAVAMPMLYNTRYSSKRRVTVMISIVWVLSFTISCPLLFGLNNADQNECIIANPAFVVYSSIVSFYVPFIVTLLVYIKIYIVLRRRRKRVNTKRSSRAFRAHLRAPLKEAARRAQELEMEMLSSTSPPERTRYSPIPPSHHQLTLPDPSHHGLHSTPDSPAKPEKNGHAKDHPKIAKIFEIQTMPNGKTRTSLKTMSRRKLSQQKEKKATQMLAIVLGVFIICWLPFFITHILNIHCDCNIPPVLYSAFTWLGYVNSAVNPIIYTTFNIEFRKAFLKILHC

Row | pKi (dopamine D2) | pKi [1] | Compound | increase of cumulative release (Ivermectin loading increased from 1% to 2%) | increase of cumulative release (Ivermectin loading increased from 1% to 4%)
1 | 7.28 | 8.23 | COc1cc2c(cc1OC)C1CC(O)C(CC(C)C)CN1CC2 [R,S,S-DHTBZ ((−)-β), [−]-β-dihydrotetrabenazine] |  | 
2 | 6.74 | 7.15 | COc1cc2c(cc1OC)C1CC(O)C(CC(C)C)CN1CC2 [S,S,S-DHTBZ ((−)-α), [−]-α-dihydrotetrabenazine] |  | 
3 |  |  | Ivermectin | 2.4-2.9 times | 3.1-3.7 times
